# Assay results from article PMC7176929, “Meroterpenoids With Protein Tyrosine Phosphatase 1B Inhibitory Activities From the Fruiting Bodies of Ganoderma ahmadii” (Frontiers in Chemistry, 2020).
# Target: T1, recombinant PTP1B catalytic domain (Homo sapiens, UniProt P18031)
# T1 construct: made in house
# T1 sequence (P18031 3-277 limits assumed): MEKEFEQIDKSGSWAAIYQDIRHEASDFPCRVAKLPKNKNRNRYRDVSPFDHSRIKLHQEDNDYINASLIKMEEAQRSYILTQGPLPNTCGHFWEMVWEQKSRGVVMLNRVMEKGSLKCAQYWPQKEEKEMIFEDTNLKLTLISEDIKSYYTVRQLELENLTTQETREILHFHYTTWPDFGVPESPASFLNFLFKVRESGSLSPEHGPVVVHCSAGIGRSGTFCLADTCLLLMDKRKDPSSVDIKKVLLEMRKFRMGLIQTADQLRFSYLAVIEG
# Assay: PTP1B inhibition assay (pNPP substrate)
# Assay type: biochemical
# Conditions: pNPP as substrate, absorbance at 405 nm, 37 °C; read-out: IC50, inhibitory activity against PTP1B
# Description: The expressed and purified methods of recombinant PTP1B catalytic domain were the same as references (Liu et al., [2018]). The dephosphorylation of p-nitrophenyl phosphate (pNPP) generated the product pNP, which can be monitored at an absorbance for 405 nm. The compounds were pre-incubated with the enzyme at 37 °C for 5 min. […] After incubation at 37°C for 15 min, the reaction was […] using 0.5 M pNPP (12.5 μL). After initializing the enzymatic reaction, the plate was then read every 20 s for 15 min in the microplate reader at 405 nm. […] The equation used was: [(Ablank-Asample)/Ablank] × 100%. The IC50 values were determined by linear or non-linear regression analysis of the concentration-response data curve.
row,IC50 [µM],SMILES
1,17,"C/C(=C\CC/C(=C/CC/C(=C/C(=O)c1cc(O)ccc1O)C(=O)O)CO)COC(=O)/C=C/c1ccc(O)cc1 [Compound 1, Ganoduriporol F]"
2,20,"C/C(=C\CCC(CO)CCC/C(=C/C(=O)c1cc(O)ccc1O)C(=O)O)COC(=O)/C=C/c1ccc(O)c(O)c1 (stereo not shown) [Compound 2, Ganoduriporol G]"
3,19,"CC(=O)OCC(CC/C=C(/CC(=O)c1cc(O)ccc1O)C(=O)O)CC/C=C(\C)COC(=O)/C=C/c1ccc(O)cc1 (stereo not shown) [Compound 3, Ganoduriporol H]"
4,23,"CC(=O)OCC(CC/C=C(\C)COC(=O)/C=C/c1ccc(O)cc1)CCC/C(=C/C(=O)c1cc(O)ccc1O)C(=O)O (stereo not shown) [Compound 4, Ganoduriporol I]"
